# Source: patent US7820839B2, “Taxoid-fatty acid conjugates and pharmaceutical compositions thereof” (The Research Foundation of State University of New York, priority 2003, dated 2010)
# Columns and labels:
# [1] = tested on: human colon carcinoma SW-620 xenografts; details: SW-620 xenografts in mice; cited from earlier work
# [2] = tested on: pgp+ human colon tumor xenograft, DLD-1; details: DLD-1
# Experimental: Female severe combined immune deficient, (SCID) mice aged six to eight weeks were obtained from either the in-house breeding facility at Roswell Park Cancer Institute or Taconic (Germantown, N.Y.). All aspects of animal care complied with the Institutional Animal Care and Use Committee guidelines. […] Tumors were initiated by implantation of approximately 50 mg of non-necrotic tumor fragments on the right flank using a 12-guage trocar needle. Chemotherapy was started when the tumor was established as a palpable mass, (approximately 50-100 mm^3 size). Therapy consisted of i.v. injections through the tail vein, given four times, three days apart. Each drug treatment group or drug free vehicle consisted of 4-5 mice per group, untreated controls contained 10 mice per group.
# These were used for comparison purposes. DHA-taxoids and other omega-3 fatty acid-taxoids were prepared as a 30 mg/mL stock solution in equal parts of Tween 80 (polyoxyethylene-sorbitan monooleate; purchased from Sigma Chemical Company) and absolute ethanol. To stablize the formulation of the DHA-taxoids and other omega-3 fatty acid-taxoids, antioxidants, L-ascorbic acid (3.9 mM) and α-tocopherol (2.0 mM), were added. Each stock solution was further diluted before use in 0.9% NaCl (saline) so that the appropriate concentration of each drug could be injected i.v. via the tail vein, in a volume of approximately 0.4 mL for a 20 g mouse. Each drug was administered once a day on […].
# For each animal, the tumor length (1) and width (w), each in mm, were measured using electronic calipers and recorded every 3-4 days. Tumor volume (v), in mm^3, was calculated using the formula: v=0.4(l×w^2). The time in days to the pre-determined target tumor volume of 600 mm^3 was linearly interpolated from a plot of log(volume) versus time. Statistically significant differences in tumor volumes between control and drug-treated mice were determined by the Cox-Mantel test. […] All statistical tests were two-sided.
# [3] = total dose 150 mg/kg (50 mg/kg/inj) i.v., SCID mice
compound,measurement,setting,value
"CC(=O)O[C@H]1C(=O)[C@@]2(C)[C@H]([C@H](OC(=O)c3ccccc3)[C@]34OC(=O)O[C@H]3[C@H](OC(=O)[C@H](O)[C@H](CC(C)C)NC(=O)OC(C)(C)C)C(C)=C1C4(C)C)[C@]1(OC(C)=O)CO[C@@H]1C[C@@H]2O [IDN-5109, ortataxel, reference compound]",activity against xenografts (in words),[1],impressive activity
same,Days to 600 mm^3 Median,"[2]; total dose 150 mg/kg (50 mg/kg/inj) i.v. day 5, 8 and 11, SCID mice",46 days
same,Growth Delay,[2]; [3],32 days
same,Toxicity: number of animals who either died or lost greater than 20% body weight,[2]; [3],0
same,Tumor free mice/Group,"[2]; tumors less than 600 mm^3 on day 201, total dose 150 mg/kg (50 mg/kg/inj) i.v.",0/3
